From PubChem BioAssay AID1963829 (Molecular Pharmacology Branch, DTP, NCI, 2024)

Test system: 935938-334-R-J1-PDC complex spheroid viability
Experiment: Anticancer human tumor 935938-334-R-J1-PDC patient-derived small intestine adenocarcinoma cell line growth inhibition [POLQ]
Conditions: for IC50: curve of first compound; for viability, T/C: stronger effect = lower value
Description: Multicellular complex tumor spheroid response to Polymerase (POL) inhibitors (novobiocin, ART-558, RP6685) in combination with a variety of drugs and investigational agents in selected tumor cell lines
The POL inhibitors (novobiocin, ART-558, and RP6685) were evaluated both individually and in combination with standard of care and investigational anticancer small molecules within a complex spheroid model of solid tumors. . Complex spheroids include a stromal component modeled by human endothelial cells (HUVEC) and fibroblasts modeled by human mesenchymal stem cells (MSCs). The concentration ranges selected for each drug and investigational agent were based upon clinically achievable concentrations if the clinical Cmax of the agent was known.
Compounds. The drugs and investigational agents: novobiocin (NSC847541), ART-558 (NSC835418), RP-6685 (NSC848927), peposertib (NSC802822), ceralasertib (NSC780249), elimusertib (NSC800525), camonsertib (NSC841442), AZD-1390 (NSC803789), olaparib (NSC753686), talazoparib (NSC767125), rucaparib (NSC756644), sotorasib (NSC818433), MRTX-1133 (NSC836407), SN-38 (NSC673596), topotecan (NSC609699), epotoside (NSC141540), doxorubicin (NSC123127), gemcitabine (NSC613327), 5-fluorouracil (NSC19893), paclitaxel (NSC125973), vemurafenib (NSC761431), MSA-2 (NSC828583), SN-011 (NSC837082), adavosertib (NSC754352), prexasertib (NSC758257), carboplatin (NSC241240) and oxaliplatin (NSC266046), were obtained from the National Cancer Institute (NCI) Developmental Therapeutics Program Chemical Repository (21). The FDA-approved anticancer drug set is available from the Developmental Therapeutics Program at https://dtp.cancer.gov/organization/dscb/obtaining/. […] The stock solutions were prepared in dimethyl sulfoxide (DMSO, Sigma-Aldrich, St. Louis, MO, cat. D2650), except for the platinum compounds which were prepared in saline (Quality Biological, Gaithersburg, MD, cat. 114-055-101), at 800-fold the tested concentration and stored at -70 degrees C prior to their use. All drugs and investigational agents were tested over a range starting from a high concentration at or near the clinical Cmax and decreasing in half-log increments. If the clinical Cmax for an agent had not been determined, the highest concentration tested was 10 microM, except for SN-38, which was tested at a high concentration of 1 microM.
Cell Culture. All cells were maintained in an incubator at 37 degrees C and 5% CO2 with 95% humidity. The PDC lines were cultured according to standard operating procedures established by the NCI PDMR (https://pdmr.cancer.gov). Table 3 of the manuscript, lists the cell lines along with the number of the three cell types plated to form the mct-spheroids and media for tumor cell growth. After thawing, all PDC lines, except 997537-175-T-J1-PDC and 415267-285-R-J2-PDC, were cultured in Matrigel-coated flasks prepared with a working solution of 1X Ham's F-12 nutrient mix, without supplementation (Thermo Fisher Scientific, cat. 11765054), 100 U/mL penicillin-streptomycin (Thermo Fisher Scientific, cat. 15140122), and 2.5% Matrigel (Corning Inc., Corning, NY, cat. 354248) for the first three passages. The two PDC lines 997537-175-T-J1-PDC and 415267-285-R-J2-PDC were cultured on uncoated flasks. The 857933-349-R-J2-PDC line was cultured in 6C/Colon 1B media containing advanced DMEM/F-12 (Thermo Fisher Scientific, cat. 12634028), 10 mM HEPES (Thermo Fisher Scientific, cat. 15630080), 1X GlutaMAX supplement (Thermo Fisher Scientific, cat. 35050061), 0.1 mg/mL primocin (InvivoGen, San Diego, CA, cat. ant-pm-2), 10% defined fetal bovine serum, heat inactivated (HyClone Laboratories Inc., Logan, UT, cat. SH30070.03HI), 50% L-WRN conditioned media (ATCC, cat. CRL-3276), 1.25 mM N-Acetyl-L-cysteine (Sigma-Aldrich, cat. A9165), 10 mM nicotinamide (Sigma-Aldrich, cat. N0636), 1X B-27 supplement (Thermo Fisher Scientific, cat. 17504044), 1X N-2 supplement (Thermo Fisher Scientific, cat. […]

[1] = second compound 0.0316 µM, first compound 0.0316 µM
[2] = second compound 0.0316 µM, first compound 0.1 µM
[3] = second compound 0.0316 µM, first compound 0.316 µM
[4] = second compound 0.0316 µM, first compound 1 µM
[5] = second compound 0.0316 µM, first compound 3.16 µM
[6] = second compound 0.0316 µM, first compound 10 µM
[7] = second compound 0.1 µM, first compound 0.0316 µM
[8] = second compound 0.1 µM, first compound 0.1 µM
[9] = second compound 0.1 µM, first compound 0.316 µM
[10] = second compound 0.1 µM, first compound 1 µM
[11] = second compound 0.1 µM, first compound 3.16 µM
[12] = second compound 0.1 µM, first compound 10 µM
[13] = second compound 0.316 µM, first compound 0.0316 µM
[14] = second compound 0.316 µM, first compound 0.1 µM
[15] = second compound 0.316 µM, first compound 0.316 µM
[16] = second compound 0.316 µM, first compound 1 µM
[17] = second compound 0.316 µM, first compound 3.16 µM
[18] = second compound 0.316 µM, first compound 10 µM
[19] = second compound 1 µM, first compound 0.0316 µM
[20] = second compound 1 µM, first compound 0.1 µM
[21] = second compound 1 µM, first compound 0.316 µM
[22] = second compound 1 µM, first compound 1 µM
[23] = second compound 1 µM, first compound 3.16 µM
[24] = second compound 1 µM, first compound 10 µM
[25] = second compound 3.16 µM, first compound 0.0316 µM
[26] = second compound 3.16 µM, first compound 0.1 µM
[27] = second compound 3.16 µM, first compound 0.316 µM
[28] = second compound 3.16 µM, first compound 1 µM
[29] = second compound 3.16 µM, first compound 3.16 µM
[30] = second compound 3.16 µM, first compound 10 µM
[31] = second compound 10 µM, first compound 0.0316 µM
[32] = second compound 10 µM, first compound 0.1 µM
[33] = second compound 10 µM, first compound 0.316 µM
[34] = second compound 10 µM, first compound 1 µM
[35] = second compound 10 µM, first compound 3.16 µM
[36] = second compound 10 µM, first compound 10 µM
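Note: spheroids exposed to drugs for seven days before viability read.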
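Throughout, for viability, T/C: 100% = DMSO vehicle control wells.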

SMILES: O=c1[nH]cc(F)c(=O)[nH]1 + Cc1cccc(N(C)C(=O)C2C(O)CCN2c2nc(C)cc(C(F)(F)F)c2C#N)c1
- IC50 (second compound 0.0316 µM): > 10 µM
- IC50 (second compound 0.1 µM): > 10 µM
- IC50 (second compound 0.316 µM): > 10 µM
- IC50 (second compound 1 µM): > 10 µM
- IC50 (second compound 3.16 µM): > 10 µM
- IC50 (second compound 10 µM): > 10 µM
- viability, T/C [1]: 131%
- viability, T/C [2]: 113%
- viability, T/C [3]: 94.2%
- viability, T/C [4]: 84%
- viability, T/C [5]: 74.2%
- viability, T/C [6]: 56.1%
- viability, T/C [7]: 106%
- viability, T/C [8]: 127%
- viability, T/C [9]: 93%
- viability, T/C [10]: 76.7%
- viability, T/C [11]: 67.4%
- viability, T/C [12]: 67.7%
- viability, T/C [13]: 84%
- viability, T/C [14]: 122%
- viability, T/C [15]: 124%
- viability, T/C [16]: 82.4%
- viability, T/C [17]: 78%
- viability, T/C [18]: 68.2%
- viability, T/C [19]: 110%
- viability, T/C [20]: 94.9%
- viability, T/C [21]: 122%
- viability, T/C [22]: 91.7%
- viability, T/C [23]: 73.7%
- viability, T/C [24]: 64%
- viability, T/C [25]: 120%
- viability, T/C [26]: 126%
- viability, T/C [27]: 97.5%
- viability, T/C [28]: 78.3%
- viability, T/C [29]: 65.3%
- viability, T/C [30]: 67.2%
- viability, T/C [31]: 99.1%
- viability, T/C [32]: 142%
- viability, T/C [33]: 87.1%
- viability, T/C [34]: 95%
- viability, T/C [35]: 68%
- viability, T/C [36]: 65.9%

SMILES: CC(C)n1c(=O)n(C)c2cnc3cc(F)c(-c4ccc(OCCCN5CCCCC5)nc4)cc3c21 + Cc1cccc(N(C)C(=O)C2C(O)CCN2c2nc(C)cc(C(F)(F)F)c2C#N)c1
- IC50 (second compound 0.0316 µM): > 10 µM
- IC50 (second compound 0.1 µM): > 10 µM
- IC50 (second compound 0.316 µM): > 10 µM
- IC50 (second compound 1 µM): > 10 µM
- IC50 (second compound 3.16 µM): > 10 µM
- IC50 (second compound 10 µM): > 10 µM
- viability, T/C [1]: 86.8%
- viability, T/C [2]: 98.4%
- viability, T/C [3]: 77.5%
- viability, T/C [4]: 112%
- viability, T/C [5]: 111%
- viability, T/C [6]: 125%
- viability, T/C [7]: 85.9%
- viability, T/C [8]: 84.7%
- viability, T/C [9]: 82.8%
- viability, T/C [10]: 82%
- viability, T/C [11]: 110%
- viability, T/C [12]: 88.3%
- viability, T/C [13]: 97.5%
- viability, T/C [14]: 94.9%
- viability, T/C [15]: 100%
- viability, T/C [16]: 97%
- viability, T/C [17]: 94.2%
- viability, T/C [18]: 97.3%
- viability, T/C [19]: 88%
- viability, T/C [20]: 103%
- viability, T/C [21]: 89.1%
- viability, T/C [22]: 93.5%
- viability, T/C [23]: 105%
- viability, T/C [24]: 98.7%
- viability, T/C [25]: 93.4%
- viability, T/C [26]: 93.7%
- viability, T/C [27]: 100%
- viability, T/C [28]: 98.1%
- viability, T/C [29]: 112%
- viability, T/C [30]: 89.5%
- viability, T/C [31]: 105%
- viability, T/C [32]: 80.6%
- viability, T/C [33]: 90.5%
- viability, T/C [34]: 84.6%
- viability, T/C [35]: 76.9%
- viability, T/C [36]: 80.1%
